Measured values from a melting point compilation (Tetko et al.).

Row | melting point [°C] | Compound
1 | 143 to 145 | NC(=S)Nc1ccccc1F
2 | 158 | COc1ccc(/N=N/c2sc(CC#N)nc2C)cc1
3 | 50 | C=CC1CNC(=S)O1 (stereo not drawn)
4 | 151 to 152 | O=S1(=O)Cc2ccccc2C1
5 | -38 | Fc1nc(F)nc(F)n1
6 | 189 to 190 | Cc1cc(NN)nc(C)n1
7 | 122 | O=C(O)c1ccccc1
8 | 229 | COc1cc(C=C(C(=O)O)C(=Cc2cc(OC)c(OC)c(OC)c2)C(=O)O)cc(OC)c1OC
9 | 105 to 107 | CSc1nc2ccc(N)cc2s1
10 | 28.5 | CCCCCCCCCCCCCCCC(=O)OCC=C(C)C=CC=C(C)C=CC1=C(C)CCCC1(C)C
11 | 63 | O=C(O)Cc1cccs1
12 | 120 | OC(CCN1CCCCC1)(c1ccccc1)c1ccccc1
13 | -6 | CN1CCNCC1
14 | 39 to 40 | CCOC(=O)Cc1ccc(O)cc1
15 | 115 | Cc1nc([N+](=O)[O-])cn1CCC#N
16 | 9 | ICCCCCI
17 | 166 | O=C(Oc1ccc(O)cc1)c1ccccc1
18 | 67 | CCCCCC(O)C=CC1C(O)CC(=O)C1CC=CCCCC(=O)O (stereo not drawn)
19 | 88 to 91 | CN(C)C(=O)[C@@H]1OC(C)(C)O[C@H]1C(=O)N(C)C
20 | 286 | NNc1ccc(S(=O)(=O)O)cc1
21 | 300 | Cn1cnc2ncnc-2c1N
22 | 102 to 106 | c1ccc(-c2ccccc2P(C2CCCCC2)C2CCCCC2)cc1

Row | melting point [°C] | Compound
23 | 194 | O=C1[C@@H](Oc2ccccc2)[C@@H](c2ccccc2)N1[C@@H](Sc1ccccc1)c1ccccc1
24 | 23 | O=S(=O)(Cl)c1ccccc1C(F)(F)F
25 | 54 to 55 | O=C(Cl)c1cc2ccccc2o1
26 | 194 to 197 | N=C(N)NS(=O)(=O)c1cc(C(F)(F)F)cc(C(F)(F)F)c1
27 | 240 to 242 | N=C1N=C2CCC(c3ccccc3)=NN2CN1
28 | 162 | NC(=O)c1cc(C(F)(F)F)cc(C(F)(F)F)c1
29 | 122 to 124 | Cc1nc2ccc(N)cc2s1
30 | -50 | FC(F)(F)Oc1ccccc1
31 | 243 to 245 | O=C1C(=O)N(O)C2CCCCC2N1O (stereo not drawn)
32 | 137 to 139 | COC(OC)c1ccc(C#N)c(S)n1
33 | 89 to 93 | COc1ccc(-c2csnn2)cc1
34 | 180 to 182 | c1ccc2c(c1)c1cccc3ccc4cccc2c4c31
35 | 304 | O=c1c(O)c(-c2ccc(O)cc2O)oc2cc(O)cc(O)c12
36 | 205 to 207 | N#C/C(=C\c1cccs1)c1nc(-c2cccc3ccccc23)cs1
37 | < -21 | CC(C)C[C@H]1OC[C@@H](C)CO1
38 | 198 to 199 | O=[N+]([O-])c1ccc(NN=CC2=C(C#Cc3ccccc3)CCCC2)c([N+](=O)[O-])c1
39 | 84 to 86 | O=[N+]([O-])c1ccc(OCCN2CCOCC2)cc1
40 | 153 | COc1ccc(C2Nn3c(nnc3-c3ccc([N+](=O)[O-])cc3)S2)cc1 (stereo not drawn)
41 | 97 | CC(C)(C)C(=O)CS(=O)(=O)c1ccc(Cl)cc1
42 | 40 to 41 | O=C(Cl)c1cnn(-c2ccccc2)c1C(F)(F)F
43 | -25.2 | CC(C)(C)C(=O)C(C)(C)C
44 | 250 to 254 | CC(C)(C)C(=O)Nc1ccncc1C(=O)O

Row | melting point [°C] | Compound
45 | 82 to 83 | Cc1ccc(-c2snc(Cl)c2C#N)cc1
46 | 226 | FC(F)(F)c1ccc(-c2nnn[nH]2)cc1
47 | 185 to 189 | Oc1ccc(/C=C/c2ccccc2)cc1
48 | 75 to 76 | O=C(Cl)c1scc2c1OCCO2
49 | 46 to 47 | COc1ccc(C(=O)Cl)cc1OC1CCCC1
50 | 246 to 248 | S=c1[nH]ccn1-c1ccccc1Cl
51 | 108 to 111 | O=C(Cl)c1csc(-c2cccc(Cl)c2Cl)n1
52 | 107 | Nc1c(Cl)c(Cl)cc(Cl)c1Cl
53 | 210 to 213 | O=[N+]([O-])c1cc2nccnc2cc1Cl
54 | 58 | Cc1ccc2c(ccc3ccccc32)c1
55 | 55 | N#CCON=C(C#N)c1ccccc1
56 | 131 | O=[N+]([O-])c1ccccc1/C=C/c1nc2ccccc2s1
57 | 78 | CCNc1nsc2ccccc12
58 | 155 | Cc1ccc2c(c1)C(c1ccccc1)C(c1ccccc1)N2 (stereo not drawn)
59 | 94 to 95 | COc1ccc(C#N)cn1
60 | 185 | Nc1ncnc2c1ncn2C1CCC(CO)O1 (stereo not drawn)
61 | > 250 | CSC(=Nc1nnc(-c2ccc([N+](=O)[O-])cc2)s1)SC
62 | 142 | O=C(C=Cc1ccccc1)c1cccc(C(=O)C=Cc2ccccc2)c1
63 | 145 | Cc1ccnc2c1ccc1cccnc12
64 | 48 to 50 | FC(F)(F)c1ccc(-c2nc(CCl)no2)cc1
65 | 234 to 235 | O=C1c2ccc(C=NO)cc2C(=O)c2c(Cl)c(Cl)c(Cl)c(Cl)c21
66 | -7 | C1CCCCCCCCCC1

Row | melting point [°C] | Compound
67 | 360 | Nc1ccc2c3c(cccc13)C(=O)NC2=O
68 | 99 to 100 | CCCc1c(O)c(C(C)=O)cc(C(C)=O)c1O
69 | 57 to 60 | C=CCSc1sc(C(=O)OCC)c2c1C(=O)CCC2
70 | 117 | CCC(C)=NNc1ccc([N+](=O)[O-])cc1[N+](=O)[O-]
71 | 124 | CC(=O)/C(=N\Nc1ccc(Cl)cc1)C(=O)C(F)(F)F
72 | 132 | CC(CCc1oc2ccc(Br)cc2c1-c1ccc(C)o1)=NO
73 | 30 | CCCCCCCCCCCCCCCCCC(=O)OCCCCC
74 | 78 to 80 | Fc1cc(CCl)c2c(c1)COCO2
75 | 198 to 199 | Cn1c(=O)c2c(nc(Cl)n2CC(=O)O)n(C)c1=O
76 | 208 | COC(=O)C1=C(C)NC(=O)NC1c1cccc(OC)c1O (stereo not drawn)
77 | 249 to 250 | COc1ccc(C=Nn2c(C)cc(C)c(C#N)c2=O)cc1
78 | 183 | O=Cc1ccc2c(c1)C(=O)c1c(Cl)c(Cl)c(Cl)c(Cl)c1C2=O
79 | 162 | Cc1cc(O)c(C(C)(C)C)cc1Sc1cc(C(C)(C)C)c(O)cc1C
80 | 150 | Cc1c(O)cccc1[N+](=O)[O-]
81 | 218 | N#CC1=C(N)Oc2c(c(C(F)(F)F)nn2-c2ccccc2)C1c1ccc(O)cc1 (stereo not drawn)
82 | -59 | Fc1cccc(F)c1
83 | 127 to 130 | CSc1nc(N)nc(C(C)C)n1
84 | 97 to 98 | CC(=O)c1cc2cc(Cl)ccc2o1
85 | 225 | Cc1ccc(-c2csc(/C(C#N)=N\Nc3cccc([N+](=O)[O-])c3)n2)cc1
86 | 174 to 176 | CC(C)(C)OC(=O)N1CCN(c2cc(C(=O)O)ccn2)CC1

Row | Compound | melting point [°C]
87 | O=Nc1ccc(Nc2ccccc2)cc1 | 143
88 | O=C1C2CC=CCC2C(=O)N1SC(Cl)(Cl)Cl (stereo not drawn) | 178
89 | N#Cc1ccc([N+](=O)[O-])cc1C(F)(F)F | 52 to 54
90 | Oc1ccc(O)c(Br)c1 | 112
91 | CCN(CC)C(=O)C(Cl)(Cl)Cl | 27
92 | CCCCCCOC(=O)c1ccccc1C(=O)OCCCCCC | -58
93 | O=C(O)c1cc([N+](=O)[O-])c(Cl)c([N+](=O)[O-])c1Cl | 210 to 215
